Consider 73 compounds from the pKa sets of Baltruschat and Czodrowski (2020).

By pKa is commonly meant the negative logarithm of the acid dissociation constant. Read a low pKa as a stronger acid or weaker base.

Several values for one entry are separate records, joined by “and”; a condition that tells them apart may be missing. Equal entries are not always repeated.

With `CS(=O)(=O)Nc1ccc(Nc2c3ccccc3nc3ncccc23)cc1`, the pKa was 5.93.

Take `O=C(O)CCc1ccccc1`: the pKa amounted to 4.64.

Take `CCCOC(=O)c1ccc(OS(N)(=O)=O)cc1`: the pKa was 8.03.

`COc1cc(NS(C)(=O)=O)ccc1Nc1c2ccccc2nc2cc(Br)ccc12`: the pKa was 6.84.

With `CS(=O)(=O)Nc1ccc(Nc2c3ccccc3nc3cc(S(C)(=O)=O)ccc23)cc1`, the pKa was 5.65.

`CS(=O)(=O)Nc1ccc(Nc2c3ccccc3nc3c([N+](=O)[O-])cccc23)cc1` had a pKa of 4.88.

Take `C[C@H](O)c1nccc(N2C[C@@H](C)N(c3ccnc([C@@H](C)O)n3)[C@@H](C)C2)n1`: the pKa is 6.

`C/C(=N\N=C(/S)N/N=C(\S)Nc1cccc(Cl)c1Cl)c1ccccn1` came in with a pKa of 7.09.

With `CCCn1c(=O)c2nc(-c3ccc(S(=O)(=O)NCCN(C)C)cc3)[nH]c2n(CCC)c1=O`, the pKa stood at 8.

`CN(C)CCNC(=O)c1cccc2ccc(-c3ccccc3)nc12`: the pKa stood at 2.75.

Regarding `CS(=O)(=O)Nc1ccc(Nc2c3ccccc3nc3cccc(Cl)c23)cc1`, the pKa was 5.86.

Regarding `CCC12CC3CC(CC(N)(C3)C1)C2`, the pKa was determined as 10.6.

For the compound `BP(=O)(OC[C@H]1O[C@@H](n2cnc3c(N)ncnc32)[C@H](O)[C@@H]1O)OP(=O)(O)C(Cl)(Cl)P(=O)(O)O` (stereo partly drawn), the pKa was 7.

In the case of `COC(=O)c1ccccc1Nc1c2ccccc2nc2ccccc12`, the pKa was found to be 6.3.

As for `CNc1cccc(Nc2c3ccccc3nc3ccccc23)c1`, the pKa stood at 7.61.

For `Cc1nc2c(OCc3ccccc3)cccn2c1N`, the pKa is 6.81.

Regarding `CCCCCS(=O)(=O)NCCCc1ccc(OCCOC)cc1Oc1ncc(C(F)(F)F)cc1Cl`, the pKa came out at 17.5.

The compound `Oc1cc(C2CCNCC2)on1` showed a pKa of 10.3.

The compound `CN1C[C@H](C(=O)N[C@]2(C)O[C@@]3(O)[C@@H]4CCCN4C(=O)[C@H](Cc4ccccc4)N3C2=O)C=C2c3cccc4[nH]cc(c34)C[C@H]21` displayed a pKa of 6.3.

Consider `CC(=O)N[C@@H](Cc1cc(F)cc(F)c1)[C@H](O)CNC1(c2cccc(C(C)(C)C)c2)CC1`, for which the pKa came to 6.6.

`O=C(C1CCN(c2ccncc2)CC1)N1CCN(S(=O)(=O)c2ccc(Br)cc2)CC1` displayed a pKa of 9.2.

With `Cc1nc2c3c(ccn2c1CC#N)CCC(c1ccccc1)O3` (stereo not drawn), the pKa was 6.

Consider `Nc1ccccc1Nc1c2ccccc2nc2ccccc12`, for which the pKa was determined as 7.87.

`CN1CC[C@H](N(C)C(=O)N2CC(c3cc(F)ccc3F)=C[C@@]2(CO)c2ccccc2)[C@@H](F)C1` displayed a pKa of 6.6.

On to `CN1C=CC(C2NC(C(Cl)(Cl)Cl)=CN2c2ccc(S(N)(=O)=O)cc2)C=C1` (stereo not drawn), for which the pKa came out at 7.89.

For the compound `NCCC(F)(F)F`, the pKa amounted to 8.7.

`COC(=O)c1ccc(OS(N)(=O)=O)cc1` had a pKa of 8.28.

Turning to `COc1cc2nc(N3CCN(C(=O)C4CCCO4)CC3)nc(N)c2cc1OC` (stereo not drawn), the pKa stood at 7.1.

As for `CC(C)n1c(/C=C/C(O)CC(O)CC(=O)O)c(-c2ccc(F)cc2)c2ccccc21` (stereo not drawn), the pKa worked out at 4.31.

`CN1CCN(Cc2ccccc2S(=O)(=O)c2csc(S(N)(=O)=O)c2)CC1.Cl`: the pKa was 6.4.

`O=S(=O)(c1cccc(F)c1)c1ccc2c3c(oc2c1)C1(CCCOC1)NCC3` (stereo not drawn): the pKa is 7.5.

For the compound `O=C(c1nnc(-c2ccccc2)o1)N1CC(Oc2ccc(CN3CC4(COC4)C3)cc2)C1`, the pKa is 8.

Compound `Cc1nc2c3c(c(C(=O)N(C)C)cn2c1C)CCC(c1ccccc1)O3` (stereo not drawn) registered a pKa of 7.15.

Regarding `FC1(F)CCCNC1`, the pKa is 7.4.

As to `O=c1n(CCCN2CCN(c3cccc(Cl)c3)CC2)nc2ccccn12`, the pKa was 6.7 and 6.73 and 6.79.

The compound `Clc1ncc[nH]1` yielded a pKa of 3.55.

The compound `Cc1cccc2nc3ccccc3c(Nc3ccc(NS(C)(=O)=O)cc3)c12` returned a pKa of 6.43.

Consider `OCCOCCN1CCN(C(c2ccccc2)c2ccc(Cl)cc2)CC1` (stereo not drawn), for which the pKa is 7.75.

Take `COc1ccc([C@@H]2Sc3ccccc3N(CCN(C)C)C(=O)[C@@H]2OC(C)=O)cc1.Cl`: the pKa is 8.06.

In the case of `COc1cccc(S(=O)(=O)Nc2cccn(CC(=O)NCc3ccc(C(=N)N)cc3OC)c2=O)c1`, the pKa came to 10.

Regarding `CCCOC(=O)CN(CCN(CCN(CC(=O)O)CC(=O)O)CC(=O)O)CC(=O)O`, the pKa came out at 1.8.

`COc1cc(NS(C)(=O)=O)ccc1Nc1c2ccccc2nc2c(Br)cccc12`: the pKa came to 6.09.

Consider `O=C(c1ccc(Cl)cc1)c1ccc(OC2CN3CCC2CC3)cc1` (stereo not drawn), for which the pKa is 9.1.

As for `C/C(=N\N=C(/S)N/N=C(\S)Nc1cccc(C(F)(F)F)c1)c1ccccn1`, the pKa was 6.79.

In turn, `COc1cc(NS(C)(=O)=O)ccc1Nc1c2ccccc2nc2c(Cl)cccc12` displayed a pKa of 6.11.

Compound `Cc1nc2c(CCc3ccccc3)cccn2c1N` came in with a pKa of 7.3.

For `CC(C)(C)NCC(O)COc1cccc2c1C[C@H](O)[C@H](O)C2` (stereo partly drawn), the pKa was 9.67.

`Cc1ccccc1N=C1NCCN1` came in with a pKa of 10.2.

Regarding `CC(C)NCC(O)COc1ccc(CCNC(=O)NC(C)C)cc1` (stereo not drawn), the pKa worked out at 9.18.

With `Cl.Fc1ccc2c(c1)N(CCCN1CCCCC1)c1cc(F)ccc1CC2`, the pKa stood at 7.6.

The compound `CS(=O)(=O)Nc1ccccc1Nc1c2ccccc2nc2ccccc12` had a pKa of 6.86.

`CN1CCN2c3ccccc3Cc3ccccc3C2C1` (stereo not drawn): the pKa came out at 7.1.

In turn, `Cc1nc2c(OCc3ccccc3)nccn2c1N` yielded a pKa of 4.6.

`Cc1ncc2n1-c1ccc(Cl)cc1C(c1ccccc1F)=NC2`: the pKa worked out at 5.44.

For `Cc1ccn2c(CC#N)c(C)nc2c1OCc1ccccc1`, the pKa came to 5.67.

As for `O=C(c1ccccc1)c1ccc2n1CCC2C(=O)O` (stereo not drawn), the pKa was 3.5.

On to `CCCNC(=O)CN(CCN(CCN(CC(=O)O)CC(=O)O)CC(=O)O)CC(=O)O`, for which the pKa was determined as 1.8.

With `CS(=O)(=O)Nc1ccc(Nc2c3ccccc3nc3cccnc23)cc1`, the pKa came to 6.9.

Take `COc1cc(NS(C)(=O)=O)ccc1Nc1c2ccccc2nc2ccc(I)cc12`: the pKa is 6.6.

For the compound `c1ccc(CN2CCN(CCCc3c[nH]c4ccc(-n5cnnc5)cc34)CC2)cc1`, the pKa is 8.2.

`CNC(=C[N+](=O)[O-])NCCSCc1csc(CN(C)C)n1` returned a pKa of 6.59.

The compound `CNC(=C[N+](=O)[O-])NCCSCc1ccc(CN(C)C)o1` registered a pKa of 8.47.

As to `Cc1cnc(NCCc2ccccc2)c(=O)n1CC(=O)NC[C@H]1CN=C(N)NC1`, the pKa is 14.

`COc1cc(NS(C)(=O)=O)ccc1Nc1c2ccccc2nc2ccc(C)cc12` gave a pKa of 7.45.

In the case of `CN(C)CCCN1c2ccccc2CCc2ccc(Cl)cc21`, the pKa is 9.38.

On to `c1ccc(NC2=NCCN2)cc1`, for which the pKa was found to be 10.1.

As to `Cc1cc(C)c(N=C2NCCN2)c(Cl)c1`, the pKa is 9.59.

Compound `CCOC(=O)c1ccc(OS(N)(=O)=O)cc1` displayed a pKa of 8.22.

The compound `COc1cc(NS(C)(=O)=O)ccc1Nc1c2ccccc2nc2c(OCCO)cccc12` gave a pKa of 7.36.

Compound `CCCCN` returned a pKa of 10.7.

Turning to `CS(=O)(=O)c1ccc(Nc2c3ccccc3nc3ccccc23)cc1`, the pKa turned out to be 5.81.

`Clc1ccccc1Nc1c2ccccc2nc2ccccc12` displayed a pKa of 6.55.

Take `FC1(Cc2ccccc2)CCN(CCCc2c[nH]c3ccc(-n4cnnc4)cc23)CC1`: the pKa came out at 8.8.
